Results reported in patent publication US9089576B2, “Medicament comprising a peptide extract of avocado, which is intended for the treatment and prevention of illnesses that are linked to an immune system deficiency or oxidative stress or skin ageing or dry skin” (LABORATOIRES EXPANSCIENCE, priority 2004, dated 2015).
Where “and” joins values, the source holds several entries; their conditions need not be identical. Identical values can stand only once. Like-named read-outs stand apart in the source and are kept apart here. Marks after values point to notes of the source that are not given here.

Legend:
[1] = tested on: hBD-2; experiment: Induction of hBD-2 in normal human keratinocytes (ELISA); format: cell-based; details: IL-1β 100 ng/ml, 24 hours
Procedure: Normal human keratinocytes are seeded in 96 well plates (about 20,000 cells/well), in the presence of a specific medium which is enriched in calcium (final concentration 1.3 mM), as formerly described in the publication “Human β-Defensin-2 production in Keratinocytes is regulated by Interleukin-1, Bacteria, and the State of Differentiation”, Alice Y. Liu et al., The Society for Investigative Dermatology, vol. 118, No 2, February 2002, pages 275-281.
After 24 hours incubation, the induction of hBD-2 is assessed with an ELISA technique using a specific antibody (goat polyclonal to human BD2; Abcam; ab9871).

[2] = tested on: oxidised proteins; experiment: Oxidised proteins content in replication-aged fibroblast model (INCell Analyzer analysis); format: cell-based, human; details: P16 fibroblasts; 150 μM BHA; 72 hours
Procedure: The study was conducted on normal human dermal fibroblasts at passage 8 (P8, control conditions) and brought to senescence using two separate methods: • accelerated ageing by means of successive replications: fibroblasts at passage 16 (P16), • accelerated ageing by means of H2O2.
The fibroblasts were cultured in DMEM medium [Invitrogen] supplemented with 2 mM L-glutamine [Invitrogen] and 10% Fetal Calf Serum [FCS, Invitrogen].
After incubation, the cells were rinsed and fixed with methanol. The fluorescein-5-thiosemicarbazide probe (20 μM) [Invitrogen] was added for 30 minutes at ambient temperature and, in parallel, the cell nuclei were stained with Hoechst [Sigma]. The image acquisition was performed using the INCell Analyzer™ 1000 unit [GE Healthcare], with the ×20 lens.

[3] = tested on: Jurkat cell line (human lymphoid cells); experiment: Anti-radical activity: intracellular lipid peroxides after H2O2 (C11-fluorine probe, flow cytometry); format: cell-based; details: 100 μM BHA; 10 μM H2O2, 30 minutes
Procedure: The relative lipid peroxide content inside the cells was measured in the basal state and following hydrogen peroxide treatment (H2O2, radical species production stimulation).
This measurement was made using a specific fluorescent probe selected and quantified by means of flow cytometry. This technique offers the advantage of very high specificity by measuring the fluorescence of individual cells, on a large number of cells (10,000 cells analysed per sample).
The cells were prepared in phenol red-free DMEM medium [Merck] with 1.87 mg/ml sodium bicarbonate [Invitrogen] according to the following conditions: • cells treated with H2O2 with the C11-fluorine probe (to quantify lipid peroxides); • cells not treated with H2O2 with C11-fluorine probe.
The probe was incorporated in the cells and the cells were then washed and incubated in the presence or not (standard) of 0.05%, 0.1%, 0.2% and 1% DM avocado peptides or 100 μM BHA (Butylated hydroxyanisole) [Sigma] […]
In the presence of hydrogen peroxide, the C11-fluorine probe integrated in the membranes is oxidised and its fluorescence decreases. Therefore, a decrease in the fluorescence signal conveys an increase in the membrane lipid peroxide content (and conversely).
The between-group comparisons were conducted using the Student's test and the protection percentage (P) was calculated as follows:

[4] = tested on: Rat peritoneal mast cells; experiment: Tryptase release by mast cells stimulated with calcium ionophore A23187; format: cell-based; details: Ca ionophore + 50 μM Quercetin
Procedure: (reference tryptase release inhibitory molecule).
The cells were then stimulated for 15 minutes by 0.5 μM calcium ionophore A23187 [Millipore] to induce the release of tryptase.
The reaction was stopped by means of centrifugation at 4° C. The tryptase was assayed in the pellets and in the supernatants by means of a commercial kit [Millipore] based on the spectrophotometric detection of the chromophore p-nitroaniline (pNA) after cleavage of the substrate tosyl-gly-pro-lys-pNA by tryptase.

[5] = tested on: MMP1; experiment: Gene expression of MMP1 in PMA-stimulated fibroblasts (real-time RT-PCR); format: cell-based, human; details: 1 mg/ml TGF b1 pre-treatment 16 hours, then 10 nM PMA 2 hours
Procedure: After 16 hours of incubation, the fibroblasts were stimulated for 2 hours with 10 nM PMA (Phorbol Myristate Acetate) [Sigma] in RPMI medium without FCS.
For the study of the expression of MMP1, the inhibition percentage was calculated as follows: […]

[6] = tested on: Collagen I; experiment: Gene expression of Collagen I in fibroblasts (real-time RT-PCR); format: cell-based, human; details: 24 hours
Procedure: (§1) The cells were then incubated at 37° C., 5% CO2 for 24 hours for the collagen I and elastin study or 48 hours for the LOX and LOXL study.

[7] = tested on: Elastin; experiment: Gene expression of Elastin in fibroblasts (real-time RT-PCR); format: cell-based, human; details: 24 hours
Procedure: as §1

[8] = tested on: Glycosaminoglycan (GAG) synthesis; experiment: GAG synthesis by keratinocytes (35S-sulphate incorporation); format: cell-based, human; details: 72 hours
Procedure: (§2) Normal human epidermal keratinocytes (NHEK) were pre-cultured for 24 hours at 37° C., 5% CO2 in calcium-depleted (0.09 mM) SFM medium [Invitrogen] supplemented with 0.25 ng/ml EGF [Invitrogen], 25 μg/ml pituitary extract [Invitrogen] and 25 μg/ml gentamycin [Sigma].
(§3) Two identical runs were prepared to assay, on one hand, hyaluronic acid release/production and, on the other, […] incorporation in the GAG fraction. The group corresponding to the GAG assay was supplemented with ^35S-sulphate [Amersham] after 48 hours of culture (labelling for the last 24 hours).
At the end of the treatment, in the group corresponding to the GAG assay, the incorporated radioactivity was counted and thus the variation in GAG synthesis with respect to the analysed control.
(§4) The between-group comparisons were conducted by means of an analysis of variance using the Dunnett multiple comparison test.

[9] = tested on: Normal human epidermal keratinocytes (NHEK); experiment: NHEK proliferation (neutral red incorporation); format: cell-based; details: 1 μM retinoic acid; 48 hours
Procedure: (§5) The cell proliferation was evaluated using a neutral red incorporation tests. This test is based on the ability of living cells to incorporate and fix neutral red, a supravital staining agent. Therefore, the staining activity intensity (optical density measurement of cell lysates) reflects the quantity of living cells.
(§6) Normal human epidermal keratinocytes (NHEK), supplied by Cambrex, were cultured in KGM2 culture medium [Cambrex]. Normal human dermal fibroblasts (NHDF), supplied by Cambrex, were cultured in RPMI 1640 medium with GlutaMAX I [Invitrogen] supplemented with 1% or 10% fetal calf serum [FCS, Invitrogen].
(§7) The cells were inoculated in 96-well plates in KGM2 medium for the NHEK and in RPMI medium with 1% FCS for the NHDF.
(§8) (positive reference) in KGM2 medium for the NHEK or in RPMI medium with 1% FCS for the NHDF.
(§9) At the end of treatment, the quantity of cells per well was evaluated by means of a neutral red incorporation test:
(§10) After 3 hours in contact with neutral red, the cells were rinsed and lysed and the optical density proportional to the quantity of living cells was read at 540 nm against the blank (well with no cells).

[10] = tested on: Desmosglein 1; experiment: DNA array gene expression, Skinethic reconstructed epidermises: Desmosglein 1; format: cell-based; details: 1 μM retinoic acid
[11] = tested on: S100 A7; experiment: DNA array gene expression, Skinethic reconstructed epidermises: S100 A7; format: cell-based; details: 1 μM retinoic acid
[12] = tested on: S100 A9; experiment: DNA array gene expression, Skinethic reconstructed epidermises: S100 A9; format: cell-based; details: 1 μM retinoic acid
[13] = tested on: SPRL6A (epidermal differentiation complex protein like protein); experiment: DNA array gene expression, Skinethic reconstructed epidermises: SPRL6A; format: cell-based; details: 1 μM retinoic acid
[14] = tested on: Thioredoxin; details: 1 μM retinoic acid
Procedure: The gene expression analysis conducted using standard simplified DNA arrays. These mini-chips were produced on a Nylon substrate, spotting specific cDNA of the markers of interest.
The analysis was conducted using proprietary optimised miniaturised technology, based on the use of messenger RNA and ^33P labelling:
At the end of each culture time, the epidermises were rinsed with a PBS solution. The total RNA in the epidermises was then extracted and purified using Tri-Reagent [Sigma] according to a standardised protocol. The quantity and quality of the RNA were then evaluated using an Agilent 2001 bioanalyser.
The mRNA from each culture was then reverse transcribed using oligodT and a deoxyribonucleotide triphosphate labelled with ^33P. Multiple cDNA ‘target’ labelled sequences were produced for each culture. These targets were then hybridised, under optimised conditions, with the excess ‘probe’ cDNA fixed on the membranes. After washing, the relative quantity of labelled target was detected by means of direct counting on PhosphorImager.
The membrane analysis was conducted using ImageQuant TL software [Image Analysis, Amersham Biosciences].

[15] = tested on: Elafin; experiment: DNA array gene expression, Skinethic reconstructed epidermises: Elafin; format: cell-based; details: 1 μM retinoic acid
[16] = tested on: Heme oxygenase 1; experiment: DNA array gene expression, Skinethic reconstructed epidermises: Heme oxygenase 1; format: cell-based; details: 1 μM retinoic acid
[17] = tested on: Lysyl oxidase like 2 (LOXL2); experiment: DNA array gene expression, Skinethic reconstructed epidermises: LOXL2; format: cell-based; details: 1 μM retinoic acid
[18] = tested on: S100 A8; experiment: DNA array gene expression, Skinethic reconstructed epidermises: S100 A8; format: cell-based; details: 1 μM retinoic acid
[19] = tested on: hyaluronic acid; experiment: Hyaluronic acid synthesis/release by keratinocytes (ELISA); format: cell-based, human; details: 0.1 μM retinoic acid, 72 hours
Procedure: as §2, §3
In the group corresponding to the hyaluronic acid assay, at the end of treatment, the culture supernatants were sampled and the hyaluronic acid assayed using a specific modified ELISA test [Biogenic].
as §4

[20] = tested on: NICE-1 protein; experiment: DNA array gene expression, Skinethic reconstructed epidermises: NICE-1; format: cell-based; details: 1 μM retinoic acid
[21] = tested on: Normal human dermal fibroblasts (NHDF); experiment: NHDF proliferation (neutral red incorporation); format: cell-based; details: 1 μM retinoic acid; 48 hours; RPMI 1% FCS
Procedure: as §5, §6, §7, §8
An additional condition was conducted for the NHDF: treatment with complete medium (RPMI with 10% FCS: optimal conditions for NHDF proliferation).
as §9, §10

**Q.** Which “hBD-2 (OD), Average” value [1] does the source give for “IL-1β: interleukin-1β, positive induction checking for hBD-2” here?
**A.** 0.106 OD

**Q.** What about the “hBD-2 (OD)” value ([1]; single replicates) of the same molecule?
**A.** 0.103 OD and 0.11 OD and 0.105 OD

**Q.** What does the source list for `COc1ccc(O)c(C(C)(C)C)c1` [BHA, Butylated hydroxyanisole]?
**A.** Oxidised proteins (cytoplasmic fluorescence intensity/number of cells) [2]: 105 314*; Oxidised proteins, % vs “senescent cells” (P16) [2]: −57%; Protection % [3]: 50%; Relative intracellular quantity of lipid peroxides, % of “oxidised cell” standard [3]: 89** %

**Q.** Which “Tryptase” value [4] does the source give for `O=c1c(O)c(-c2ccc(O)c(O)c2)oc2cc(O)cc(O)c12` [Quercetin] here?
**A.** 44 ± 2 mg/mL

**Q.** What about the “tryptase release, Inhibition (% vs stimulated cells)” value [4] of the same molecule?
**A.** −47%

**Q.** How did the “Gene expression of MMP1, Inhibition (% vs stimulated cells)” value [5] turn out when “TGF b1: TGFβ1 [R&D Systems], positive control / reference” was run?
**A.** −66 $$ %

**Q.** And the “Gene expression of MMP1, Relative quantity standardised with YWHA2” value [5]?
**A.** 0.61

**Q.** What about the “Gene expression of MMP1, Inhibition (% vs stimulated cells)” value ([5]; listed as TGFβ1) of the same molecule?
**A.** −66%

**Q.** What about the “Gene expression of Collagen I, Relative quantity standardised with HPRT” value ([6]; 5 mg/ml TGF b1) of the same molecule?
**A.** 1.74*

**Q.** And the “increase in gene expression of type I collagen” value ([6]; TGFβ1 positive control)?
**A.** 74%

**Q.** And the “Gene expression of Elastin, Relative quantity standardised with HPRT” value ([7]; 5 mg/ml TGF b1)?
**A.** 1.59

**Q.** And the “increase in gene expression of elastin” value ([7]; TGFβ1 positive control)?
**A.** 59%

**Q.** What does the source list for `CC1=C(/C=C/C(C)=C/C=C/C(C)=C/C(=O)O)C(C)(C)CCC1` [retinoic acid]?
**A.** GAG synthesis, 35-5 sulphate incorporation (cpm) ([8]; 0.1 μM retinoic acid): 13217 ± 421 cpm; NHEK proliferation, % vs control cells [9]: +36%; NHEK proliferation, Neutral Red (OD 540) [9]: 0.6981 ± 0.1627 OD 540; % variation with respect to reference: Desmosglein 1 ([10]; 6 hours): −40%; % variation with respect to reference: Desmosglein 1 ([10]; 24 hours): −95%; % variation with respect to reference: S100 A7 ([11]; 6 hours): +118%; % variation with respect to reference: S100 A7 ([11]; 24 hours): +3240%; % variation with respect to reference: S100 A9 ([12]; 6 hours): +83%; % variation with respect to reference: S100 A9 ([12]; 24 hours): +552%; % variation with respect to reference: SPRL6A ([13]; 6 hours): −41%; % variation with respect to reference: SPRL6A ([13]; 24 hours): +202%; % variation with respect to reference: Thioredoxin ([14]; 6 hours): −26%; % variation with respect to reference: Thioredoxin ([14]; 24 hours): +126%; % variation with respect to reference: Elafin ([15]; 6 hours): +13%; % variation with respect to reference: Elafin ([15]; 24 hours): −22%; % variation with respect to reference: Heme oxygenase 1 ([16]; 6 hours): −17%; % variation with respect to reference: Heme oxygenase 1 ([16]; 24 hours): +108%; % variation with respect to reference: Lysyl oxidase like 2 (LOXL2) ([17]; 6 hours): −16%; % variation with respect to reference: Lysyl oxidase like 2 (LOXL2) ([17]; 24 hours): −16%; % variation with respect to reference: S100 A8 ([18]; 6 hours): +34%; % variation with respect to reference: S100 A8 ([18]; 24 hours): +1347%; Hyaluronic acid synthesis/release, % vs control cells [19]: +146%; Hyaluronic acid synthesis/release, HA ([19]; culture supernatant): 11500 ± 457 ng/mL; % variation with respect to reference: NICE-1 protein ([20]; 6 hours): −3%; % variation with respect to reference: NICE-1 protein ([20]; 24 hours): +217%; NHDF proliferation, % vs control cells [21]: +20%; NHDF proliferation, Neutral Red (OD 540) [21]: 0.1923 ± 0.00765 OD 540

**Q.** Which results are given for `[Ca+2]` [Calcium, calcium]?
**A.** GAG synthesis, 35-5 sulphate incorporation (cpm) ([8]; 1.5 mM calcium): 17753 ± 876 cpm; GAG synthesis, % vs control cells ([8]; 1.5 mM calcium): +59%
